Columns and labels:
[1] = test system: men undergoing robotic radical prostatectomy; assay: Ongoing study of the 57 subjects plus 23 new subjects (80 men): intercourse and pad use after prostatectomy with phenylephrine infiltration; type: in vivo, human; conditions: for Intercourse: reflects use of phosphodiesterase inhibitors
Protocol: (§1) A group of men who were in need of a prostatectomy were tested. All men undergoing robotic radical prostatectomy after June 2009 were given informed consent regard to and asked to participate in a prospective study of outcomes of robotic radical prostatectomy. Baseline data were obtained preoperatively with regard to sexual and urinary function using self-administered International Index of Erectile Function and International Prostate Symptom Score Questionnaires. Additionally, patients were asked if they had experienced intercourse, urinary incontinence or pad used in the 4 weeks prior to the initial screening visit. Only patients with a pre-operative score on the International Index of Erectile Function of greater than or equal to 20 were included in the post-operative analysis of continence and potency.
(§2) A standard method of prostatectomy was used except that hemostasis was achieved by the infiltration of phenylephrine at a concentration of 100 micrograms per milliliter into the anterior and antero lateral bladder neck (1000 micrograms), right lateral bladder neck (1,000 micrograms), left lateral bladder neck (1,000 micrograms), right prostatic vascular pedicle and neurovascular margin (1,000 micrograms) and left prostatic vascular pedicles and neurovascular margin (1,000 micrograms) for a total of 5,000 micrograms of the agent. Sharp cold dissection was then performed with either the Snap Blade or the Shears with rare spot use of bipolar cautery. Monopolar cautery was not used during any part of the procedure.
Continence was assessed in the post-operative period by pad use with one pad per day or less being considered as “socially continent.” The use of zero pads per day was considered “absolutely continent” Or “complete continence.” The time necessary to achieve each of these milestones was recorded individually for each subject. The end point of sexual recovery was intercourse, and the experience of intercourse was monitored at each post-operative visit. Intercourse was experienced by 21% of men within the 4 weeks prior to initial evaluation. It is noteworthy that two (2) weeks lapsed between the surgery and the removal of the urinary catheter, thus the initial evaluation of sexual function occurred 2 weeks following removal of the catheter, or 4 weeks following surgery. Additional follow-up evaluations were done at 8 and 12 weeks post-operative time points. […] Intercourse at the 9 month interval (39 weeks) was established by phone interview in those men not reporting intercourse at the 6 month visit, and for whom interim follow up was not scheduled.
An ongoing study of the 57 subjects described above as well as an additional 23 new subjects was also performed.

[2] = test system: men undergoing robotic radical prostatectomy; assay: Prospective outcome study of robotic radical prostatectomy with phenylephrine infiltration for hemostasis (57 men, IIEF >= 20): continence by pad use, potency by intercourse; type: in vivo, human
Protocol: as §1, §2
Continence was assessed in the post-operative period by pad use with one pad per day or less being considered as “socially continent.” The use of zero pads per day was considered “absolutely continent” Or “complete continence.” The time necessary to achieve each of these milestones was recorded individually for each subject. The end point of sexual recovery was intercourse, and the experience of intercourse was monitored at each post-operative visit. Intercourse was experienced by 21% of men within the 4 weeks prior to initial evaluation. […] Additional follow-up evaluations were done at 8 and 12 weeks post-operative time points. […] Intercourse at the 9 month interval (39 weeks) was established by phone interview in those men not reporting intercourse at the 6 month visit, and for whom interim follow up was not scheduled.
All patients in this study were given informed consent for participation in a prospective study of outcomes of robotic radical prostatectomy. No patients withdrew. Fifty seven (57) men among all patients operated had IIEF scores of 20 or greater. Two patients refused or were lost to follow-up for other reasons. All observations were collected in a prospective fashion and maintained in our IRB approved database of patients having robotic surgery.
Analysis of differences in means was performed by Student's t-test. The differences in proportions were calculated by the Chi-squared test. The probability of return of social continence, absolute continence, and the probability of intercourse was calculated by the Kaplan Meier function.

[3] = 12 weeks (3 mos) post op, 77 patients
[4] = 26 weeks (6 mos) post op, 71 patients
[5] = 39 weeks (9 mos) post op, 63 patients
[6] = 52 weeks (12 mos) post op, 53 patients
[7] = 78 weeks (1.5 yrs) post op, 30 patients
[8] = 104 weeks (2.0 yrs) post op, 14 patients
[9] = within about 52 weeks following surgery, FIG. 4
[10] = 2 weeks postoperative, 57 patients
[11] = 4 weeks postoperative, 57 patients
[12] = 6 weeks postoperative, 57 patients
[13] = 8 weeks postoperative, 56 patients
[14] = 12 weeks postoperative, 55 patients
[15] = 26 weeks postoperative, 46 patients
[16] = 39 weeks postoperative, 38 patients
[17] = 52 weeks postoperative, 37 patients
[18] = 78 weeks postoperative, 23 patients

CNC[C@H](O)c1cccc(O)c1 [phenylephrine]
One or less pad per 24 hours ([1]; 2 weeks post op, 79 patients): 32%
Zero Pads per 24 hours ([1]; 2 weeks post op, 79 patients): 18%
Intercourse ([1]; 2 weeks post op, 79 patients): 10%
One or less pad per 24 hours ([1]; 4 weeks post op, 78 patients): 49%
Zero Pads per 24 hours ([1]; 4 weeks post op, 78 patients): 28%
Intercourse ([1]; 4 weeks post op, 78 patients): 19%
One or less pad per 24 hours ([1]; 6 weeks post op, 77 patients): 58%
Zero Pads per 24 hours ([1]; 6 weeks post op, 77 patients): 27%
Intercourse ([1]; 6 weeks post op, 77 patients): 25%
One or less pad per 24 hours ([1]; 8 weeks post op, 77 patients): 60%
Zero Pads per 24 hours ([1]; 8 weeks post op, 77 patients): 28%
Intercourse ([1]; 8 weeks post op, 77 patients): 27%
One or less pad per 24 hours [1, 3]: 73%
Zero Pads per 24 hours [1, 3]: 36%
Intercourse [1, 3]: 42%
One or less pad per 24 hours [1, 4]: 89%
Zero Pads per 24 hours [1, 4]: 52%
Intercourse [1, 4]: 58%
One or less pad per 24 hours [1, 5]: 92%
Zero Pads per 24 hours [1, 5]: 65%
Intercourse [1, 5]: 67%
One or less pad per 24 hours [1, 6]: 100%
Zero Pads per 24 hours [1, 6]: 85%
Intercourse [1, 6]: 83%
One or less pad per 24 hours [1, 7]: 100%
Zero Pads per 24 hours [1, 7]: 83%
Intercourse [1, 7]: 77%
One or less pad per 24 hours [1, 8]: 100%
Zero Pads per 24 hours [1, 8]: 93%
Intercourse [1, 8]: 93%
time within which social continence was achieved for all subjects ([1]; following surgery, FIG. 4): ≤ 52 weeks
One or less pad per 24 hours ([1]; week 0 (Pre Op), 80 patients): 100%
Zero Pads per 24 hours ([1]; week 0 (Pre Op), 80 patients): 99%
Intercourse ([1]; week 0 (Pre Op), 80 patients): 90%
subjects achieving absolute continence [1, 9]: more than 80%
subjects achieving sexual function (intercourse) [1, 9]: about 80%
Complete Continence Number (%) [2, 10]: 10 (18%) Number (%)
Potency Number (%) [2, 10]: 7 (12%) Number (%)
Social Continence Number (%) ([2]; 2 weeks postoperative, 57 patients, 5,000 micrograms phenylephrine infiltrated): 20 (35%) Number (%)
Complete Continence Number (%) [2, 11]: 17 (30%) Number (%)
Potency Number (%) [2, 11]: 12 (21%) Number (%)
Social Continence Number (%) [2, 11]: 31 (54%) Number (%)
Complete Continence Number (%) [2, 12]: 16 (28%) Number (%)
Potency Number (%) [2, 12]: 14 (25%) Number (%)
Social Continence Number (%) [2, 12]: 32 (56%) Number (%)
Complete Continence Number (%) [2, 13]: 17 (30%) Number (%)
Potency Number (%) [2, 13]: 15 (27%) Number (%)
Social Continence Number (%) [2, 13]: 33 (58%) Number (%)
Complete Continence Number (%) [2, 14]: 20 (36%) Number (%)
Potency Number (%) [2, 14]: 23 (42%) Number (%)
Social Continence Number (%) [2, 14]: 40 (73%) Number (%)
Complete Continence Number (%) [2, 15]: 26 (57%) Number (%)
Potency Number (%) [2, 15]: 24 (52%) Number (%)
Social Continence Number (%) [2, 15]: 40 (87%) Number (%)
Complete Continence Number (%) [2, 16]: 24 (63%) Number (%)
Potency Number (%) [2, 16]: 20 (53%) Number (%)
Social Continence Number (%) [2, 16]: 34 (89%) Number (%)
subjects at risk with social continence ([2]; 52-week mark, Kaplan Meier plot FIG. 1): 100%
Complete Continence Number (%) [2, 17]: 35 (95%) Number (%)
Potency Number (%) [2, 17]: 34 (92%) Number (%)
Social Continence Number (%) [2, 17]: 37 (100%) Number (%)
subjects with complete continence ([2]; 78-week time point, Kaplan Meier plot FIG. 2): 100%
potency following surgery ([2]; 78-week time point, Kaplan Meier plot FIG. 3): Complete potency was achieved
Complete Continence Number (%) [2, 18]: 23 (100%) Number (%)
Potency Number (%) [2, 18]: 23 (100%) Number (%)
Social Continence Number (%) [2, 18]: 23 (100%) Number (%)
Potency Number (%) ([2]; week 0 (pre-surgical baseline), 57 patients, intercourse): 51 (89%) Number (%)
Social Continence Number (%) ([2]; week 0 (pre-surgical baseline), 57 patients, one pad per day or less): 57 (100%) Number (%)
Complete Continence Number (%) ([2]; week 0 (pre-surgical baseline), 57 patients, zero pads per day): 57 (100%) Number (%)
men who experienced intercourse ([2]; within the 4 weeks prior to initial evaluation (4 weeks following surgery)): 21%

Reference: patent US20140323952A1, “METHODS FOR PROSTATECTOMY” (priority 2011, published 2014)
